Reference: PubChem BioAssay AID2060508 (Molecular Pharmacology Branch, DTP, NCI, 2025)

System: 454973-116-R2-J3-PDC spheroids, viability, % test/control
Assay: Anticancer human tumor 454973-116-R2-J3-PDC patient-derived pancreatic carcinoma cell line growth inhibition [GQUAD]
Conditions: spheroids with HUVEC and MSC; for IC50: curve of first compound; for viability, T/C: stronger effect = lower value; active = viability on the fitted dose curve at most 10% of control; inactive = the rest
Method in brief: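 Multi-cell-type spheroids of tumor cells with HUVEC and mesenchymal stem cells, treated with drug combinations. Concentrations descend in half-log steps from near clinical Cmax, or from 10 microM where Cmax is unknown; viability read-out.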

[1] = second compound 0.0316 µM, first compound 0.0316 µM
[2] = second compound 0.0316 µM, first compound 0.1 µM
[3] = second compound 0.0316 µM, first compound 0.316 µM
[4] = second compound 0.0316 µM, first compound 1 µM
[5] = second compound 0.0316 µM, first compound 3.16 µM
[6] = second compound 0.0316 µM, first compound 10 µM
[7] = second compound 0.1 µM, first compound 0.0316 µM
[8] = second compound 0.1 µM, first compound 0.1 µM
[9] = second compound 0.1 µM, first compound 0.316 µM
[10] = second compound 0.1 µM, first compound 1 µM
[11] = second compound 0.1 µM, first compound 3.16 µM
[12] = second compound 0.1 µM, first compound 10 µM
[13] = second compound 0.316 µM, first compound 0.0316 µM
[14] = second compound 0.316 µM, first compound 0.1 µM
[15] = second compound 0.316 µM, first compound 0.316 µM
[16] = second compound 0.316 µM, first compound 1 µM
[17] = second compound 0.316 µM, first compound 3.16 µM
[18] = second compound 0.316 µM, first compound 10 µM
[19] = second compound 1 µM, first compound 0.0316 µM
[20] = second compound 1 µM, first compound 0.1 µM
[21] = second compound 1 µM, first compound 0.316 µM
[22] = second compound 1 µM, first compound 1 µM
[23] = second compound 1 µM, first compound 3.16 µM
[24] = second compound 1 µM, first compound 10 µM
[25] = second compound 3.16 µM, first compound 0.0316 µM
[26] = second compound 3.16 µM, first compound 0.1 µM
[27] = second compound 3.16 µM, first compound 0.316 µM
[28] = second compound 3.16 µM, first compound 1 µM
[29] = second compound 3.16 µM, first compound 3.16 µM
[30] = second compound 3.16 µM, first compound 10 µM
[31] = second compound 10 µM, first compound 0.0316 µM
[32] = second compound 10 µM, first compound 0.1 µM
[33] = second compound 10 µM, first compound 0.316 µM
[34] = second compound 10 µM, first compound 1 µM
[35] = second compound 10 µM, first compound 3.16 µM
[36] = second compound 10 µM, first compound 10 µM
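Note: spheroids exposed to compounds for seven days.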
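Throughout, for viability, T/C: 100% = DMSO vehicle control viability.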

C#Cc1c(F)ccc2cc(O)cc(-c3ncc4c(N5CC6CCC(C5)N6)nc(OCC56CCCN5CC(F)C6)nc4c3F)c12 (stereo unspecified) + Cc1[nH]c2ccc(F)cc2c1-c1nc2c3cccnc3c3ncccc3c2[nH]1
< 0.0316 µM: IC50 (second compound 10 µM)
0.0562 µM: IC50 (second compound 0.316 µM)
0.0722 µM: IC50 (second compound 0.1 µM)
0.0346 µM: IC50 (second compound 3.16 µM)
0.0554 µM: IC50 (second compound 0.0316 µM)
0.057 µM: IC50 (second compound 1 µM)
inactive: viability, T/C [1] 59.5% | viability, T/C [2] 40.2% | viability, T/C [3] 27.5% | viability, T/C [4] 25.1% | viability, T/C [5] 21.5% | viability, T/C [6] 15.5% | viability, T/C [7] 63.5% | viability, T/C [8] 43.4% | viability, T/C [9] 34.5% | viability, T/C [10] 24.4% | viability, T/C [11] 21.9% | viability, T/C [12] 17% | viability, T/C [13] 57.2% | viability, T/C [14] 45.2% | viability, T/C [15] 27.7% | viability, T/C [16] 23.9% | viability, T/C [17] 29.6% | viability, T/C [18] 17.5% | viability, T/C [19] 58.6% | viability, T/C [20] 41.8% | viability, T/C [21] 29.8% | viability, T/C [22] 22.9% | viability, T/C [23] 17.6% | viability, T/C [24] 15.4% | viability, T/C [25] 52.1% | viability, T/C [26] 35.5% | viability, T/C [27] 27.2% | viability, T/C [28] 21.1% | viability, T/C [29] 19.6% | viability, T/C [30] 12.8% | viability, T/C [31] 48.1% | viability, T/C [32] 36.9% | viability, T/C [33] 26.2% | viability, T/C [34] 17.6% | viability, T/C [35] 16.8% | viability, T/C [36] 12.3%

CCCS(=O)(=O)Nc1ccc(F)c(C(=O)c2c[nH]c3ncc(-c4ccc(Cl)cc4)cc23)c1F + Cc1[nH]c2ccc(F)cc2c1-c1nc2c3cccnc3c3ncccc3c2[nH]1
inactive: viability, T/C [1] 114% | viability, T/C [2] 117% | viability, T/C [3] 127% | viability, T/C [4] 116% | viability, T/C [5] 101% | viability, T/C [7] 112% | viability, T/C [8] 118% | viability, T/C [9] 113% | viability, T/C [10] 118% | viability, T/C [11] 92.7% | viability, T/C [13] 112% | viability, T/C [14] 107% | viability, T/C [15] 102% | viability, T/C [16] 113% | viability, T/C [17] 113% | viability, T/C [19] 104% | viability, T/C [20] 102% | viability, T/C [21] 114% | viability, T/C [22] 128% | viability, T/C [23] 115% | viability, T/C [25] 109% | viability, T/C [26] 115% | viability, T/C [27] 114% | viability, T/C [28] 98.6% | viability, T/C [29] 112% | viability, T/C [30] 13.3% | viability, T/C [31] 107% | viability, T/C [32] 101% | viability, T/C [33] 116% | viability, T/C [34] 110% | viability, T/C [35] 106% | viability, T/C [36] 14.4%
5.65 µM: IC50 (second compound 0.1 µM)
6.4 µM: IC50 (second compound 10 µM)
6.27 µM: IC50 (second compound 0.316 µM)
6.45 µM: IC50 (second compound 3.16 µM)
6.3 µM: IC50 (second compound 1 µM)
5.97 µM: IC50 (second compound 0.0316 µM)
active: viability, T/C [6] 8.25% | viability, T/C [12] 8.04% | viability, T/C [18] 9.5% | viability, T/C [24] 8.32%

Cc1[nH]c2ccccc2c1CCNCc1ccc(/C=C/C(=O)NO)cc1 + Cc1[nH]c2ccc(F)cc2c1-c1nc2c3cccnc3c3ncccc3c2[nH]1
0.0758 µM: IC50 (second compound 0.1 µM)
0.0743 µM: IC50 (second compound 0.0316 µM)
0.0728 µM: IC50 (second compound 3.16 µM)
0.0775 µM: IC50 (second compound 0.316 µM)
0.0684 µM: IC50 (second compound 1 µM)
active: viability, T/C [3] 6.79% | viability, T/C [9] 7.21% | viability, T/C [15] 6.45% | viability, T/C [21] 9.42% | viability, T/C [27] 9.17%
inactive: viability, T/C (second compound 0.0316 µM, first compound 0.000999 µM) 107% | viability, T/C (second compound 0.0316 µM, first compound 0.00316 µM) 104% | viability, T/C (second compound 0.0316 µM, first compound 0.00999 µM) 104% | viability, T/C [1] 85.7% | viability, T/C (second compound 0.0316 µM, first compound 0.0999 µM) 37.6% | viability, T/C (second compound 0.1 µM, first compound 0.000999 µM) 104% | viability, T/C (second compound 0.1 µM, first compound 0.00316 µM) 109% | viability, T/C (second compound 0.1 µM, first compound 0.00999 µM) 108% | viability, T/C [7] 94.5% | viability, T/C (second compound 0.1 µM, first compound 0.0999 µM) 36% | viability, T/C (second compound 0.316 µM, first compound 0.000999 µM) 110% | viability, T/C (second compound 0.316 µM, first compound 0.00316 µM) 110% | viability, T/C (second compound 0.316 µM, first compound 0.00999 µM) 90.4% | viability, T/C [13] 88.8% | viability, T/C (second compound 0.316 µM, first compound 0.0999 µM) 38.3% | viability, T/C (second compound 1 µM, first compound 0.000999 µM) 106% | viability, T/C (second compound 1 µM, first compound 0.00316 µM) 97.5% | viability, T/C (second compound 1 µM, first compound 0.00999 µM) 99.1% | viability, T/C [19] 79.8% | viability, T/C (second compound 1 µM, first compound 0.0999 µM) 35.3% | viability, T/C (second compound 3.16 µM, first compound 0.000999 µM) 99.7% | viability, T/C (second compound 3.16 µM, first compound 0.00316 µM) 94.3% | viability, T/C (second compound 3.16 µM, first compound 0.00999 µM) 85.3% | viability, T/C [25] 86.6% | viability, T/C (second compound 3.16 µM, first compound 0.0999 µM) 36.2% | viability, T/C (second compound 10 µM, first compound 0.000999 µM) 96.2% | viability, T/C (second compound 10 µM, first compound 0.00316 µM) 87.9% | viability, T/C (second compound 10 µM, first compound 0.00999 µM) 92.3% | viability, T/C [31] 75.5% | viability, T/C (second compound 10 µM, first compound 0.0999 µM) 44.6% | viability, T/C [33] 11%
0.0817 µM: IC50 (second compound 10 µM)
